Data set [1] deals with 5FU overdose. Conditions: cited from earlier work.
The nature of data set [2]: 5-fluorouracil toxicity severity score calculation. More on the design: species or system human. The settings on record: base ten logarithms, dose in mg, administration rate in mg/hr. An excerpt: This invention provides a method of determining a 5-fluorouracil toxicity severity score for a patient receiving 5-fluorouracil, comprising calculating the square root of the sum of: (a) the square of the logarithm of the dose of 5-fluorouracil administered to the patient; and (b) the square of the logarithm of the administration rate of the 5-fluorouracil to the patient.
The severity score can be represented by the following equation:
Severity Score=[(log Dose)^2+(log Rate)^2]^1/2
Typically the logarithm is a base-ten logarithm (log10):
ti Severity Score=[(log10 Dose)^2+(log10 Rate)^2]^1/2
In accordance with this invention the dose and the dose rate can be expressed in any units, including all units that are conventional for expressing drug doses and dose rates. […] Whether they should receive vistonuridine should be evaluated on a case-by-case basis by the patient's physician. When units other than milligrams and mg/hr are utilized or a power relationship other than log10 is utilized in the calculation, the severity score will have a different numerical value and the skilled artisan can readily calculate the corresponding cut-offs distinguishing among lethal, seriously toxic but nonlethal, and nontoxic, doses. […]

The conditions of data set [3]: cited from earlier work.
The test system of another data set is lethal 5FU overdose. Briefly: Vistonuridine antidote after lethal 5FU overdose in mice. Type of data set: in vivo. Here is the method: Uridine is a specific pharmacologic antidote for 5FU poisoning. It reduces 5FU toxicity when taken up prior to the onset of cell death. However uridine has poor oral bioavailability (about 7%). Vistonuridine (chemical name: 2′,3′,5′-tri-O-acetyluridine) is an oral prodrug of uridine. […] Vistonuridine is rapidly converted to circulating uridine by deacetylation (FIG. 2). It is an effective antidote against 5FU poisoning when administered up to 48 hours or more after a lethal 5FU overdose in mice, and up to 96 hours or more in humans. (See Example 1 below).

Data set [4] relates to 5FU overdose. Briefly: Patients overdosed with 5FU treated with vistonuridine as an antidote. Type of data set: in vivo, human. As for the experimental part: Seventeen patients overdosed with 5FU have been treated with vistonuridine as an antidote. Patients received vistonuridine (10 g q6h for 20 doses) beginning 8 to 96 hours after overdose. Data from 13 patients with similar 5FU overdoses provide the time course and outcomes for patients receiving available supportive care without vistonuridine. A severity score, integrating dose and infusion rate, was calculated for all the patients, and this tool could be used by healthcare workers to determine the expected severity and outcome of a 5FU overdose.
Wellstat Therapeutics Corporation was contacted by physicians of patients who had received 5FU overdoses, most due to infusion pump errors. Emergency Investigational New Drug approvals (INDs) were obtained from the U.S. Food and Drug Administration (FDA), and vistonuridine was promptly shipped or couriered to the clinics. Patients received vistonuridine beginning 8 to 96 hours after 5FU.

For data set [5] the following is noted: cited from earlier work. This is another data set of the same source.

“Also recorded” adds a separate entry of the source. Like-named read-outs stand apart in the source and are kept apart here. Bounds are passed on as bounds.

For `O=c1[nH]cc(F)c(=O)[nH]1` [5FU, 5-Fluorouracil], the “Outcome of the 11 literature-reported 5FU overdose cases with predicted death” value in the data set on 5FU overdose [1] (11 cases, available supportive care, no vistonuridine) is on record as “die from the overdose”. For the same compound, the “Observed Outcome” value in the data set on 5FU overdose [1] (individual 5FU overdose patient, best supportive care without vistonuridine) is reported as “Death; also recorded: Recovered”. Moreover, the “Severity score that indicates a lethal dose” value in data set [2] was at least 4.5. In data set [3] (about 275,000 US cancer patients receive 5FU annually, NIH estimate), the “Patients receiving 5FU who will develop a toxic reaction” value is “about 3%”. Moreover, in data set [3] (human, in vivo), the “Patients who die each year from 5FU overexposure” value is given as “more than 1300 patients”.
`CC(=O)OC[C@H]1O[C@@H](n2ccc(=O)[nH]c2=O)[C@H](OC(C)=O)[C@@H]1OC(C)=O` [Vistonuridine, 2′,3′,5′-tri-O-acetyluridine]: the “Time after lethal 5FU overdose at which the antidote is still effective” value in the data set on lethal 5FU overdose was at least 48 h. In addition, the “Outcome of all 17 overdose patients treated with vistonuridine” value in the data set on 5FU overdose [4] (17 patients, most with relatively modest toxicity) is “recovered fully”. The “Time after 5FU overdose at which the antidote is still effective” value with 5FU overdose [4] (humans) is at least 96 h. Moreover, in the data set on 5FU overdose [4] (individual 5FU overdose patient, vistonuridine 10 g q6 hr for 20 doses beginning 8 to 96 hours after the 5FU overdose), the “Observed Outcome” value was “Recovered”.
For the compound `O=c1ccn([C@@H]2O[C@H](CO)[C@@H](O)[C@H]2O)c(=O)[nH]1` [uridine, Uridine], in data set [5], the Oral bioavailability entry is recorded as “about 7%”.

The record behind these values is US20120078529A1, “DETERMINING THE SEVERITY OF 5-FLUOROURACIL OVERDOSE” (WELLSTAT THERAPEUTICS CORPORATION, priority 2009, published 2012).
